Here are results for one compound from article PMC4349960, “[^18F]FE@SUPPY: a suitable PET tracer for the adenosine A3 receptor? An in vivo study in rodents” (European Journal of Nuclear Medicine and Molecular Imaging, 2015).

For series [1], the target named is T1, A3R (Rattus norvegicus, UniProt P28647).
T1 construct: Adult male Sprague-Dawley rats; from tissue; host or cells: living Sprague-Dawley rats, brain volume of interest in PET
T1 sequence (P28647 1-320): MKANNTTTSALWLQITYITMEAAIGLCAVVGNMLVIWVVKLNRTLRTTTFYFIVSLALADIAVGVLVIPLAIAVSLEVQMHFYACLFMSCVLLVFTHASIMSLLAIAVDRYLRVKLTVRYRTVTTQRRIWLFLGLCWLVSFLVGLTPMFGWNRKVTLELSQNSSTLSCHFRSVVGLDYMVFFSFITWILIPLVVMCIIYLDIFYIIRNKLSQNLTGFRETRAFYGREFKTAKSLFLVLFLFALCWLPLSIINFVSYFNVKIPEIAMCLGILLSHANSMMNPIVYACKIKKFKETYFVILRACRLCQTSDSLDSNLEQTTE
The series can be described thus: Small-animal PET in rats: baseline and A3R blocking scans. Type of series: in vivo. To be noted: baseline PET, 60 min. An excerpt:
A microPET Focus220 scanner (Siemens, Medical Solutions) was used for the experiments. It has 168 detector modules providing a 7.6-cm axial and 22-cm transaxial field of view. The resolution of the reconstructed images (filtered back projection) was 1.3 mm (full-width at half-maximum) in the central field of view and remained under 2 mm within the central 5 cm diameter field of view. For PET imaging two groups of animals (rats and xenografted mice) were investigated. Rats were divided into four groups. The first group received vehicle (dimethyl sulphoxide, DMSO) intravenously via a lateral tail vein 30 min prior to radiotracer administration (three animals, 14.3 – 70.1 MBq, 0.2604 ± 0.06 μg). The second group received MRS1523 – a selective A3R antagonist – at a dose of 2 mg/kg body weight (dissolved in DMSO, 4 mg/mL) intravenously via a tail vein 30 min prior to radiotracer administration (three animals, 18.8 – 59.1 MBq, 0.3443 ± 0.05 μg). The third group received unlabelled title compound FE@SUPPY (dissolved in DMSO, 4 mg/mL) at a dose of 2 mg/kg 30 min before tracer administration (three animals, 9.7 – 16.1 MBq, 0.3926 ± 0.04 μg). In the final study group, the effect of P-glycoprotein inhibition was assessed by intravenous administration of 15 mg/kg TQD (freshly dissolved on each experimental day in 2.5 % aqueous dextrose solution and injected intravenously via a tail vein at a volume of 3 mL/kg over 1 min) 60 min prior to tracer administration (three animals, 13.9 – 26.8 MBq, 0.7451 ± 0.11 μg).
Anaesthetized animals were positioned in the imaging chamber of the microPET scanner, which was kept at 38 °C throughout the experiment. A stereotactic holder attached to the bed, consisting of ear plugs and a tooth bar, was used to fix the animal's head to ensure a reproducible position during the PET studies. [^18F]FE@SUPPY (27.91 ± 13.82 MBq) dissolved in 0.48 ± 0.22 mL phosphate-buffered saline (pH 7.4) was administered as a bolus via a tail vein. Dynamic PET imaging was performed over 60 min in all animals. At the end of the PET scan the animals were killed, a terminal blood sample was collected and whole brains were removed for testing of metabolite stability.
For all PET scans (rats and xenografted mice), list mode data were acquired with an energy window of 350 – 750 keV (rats) or 250 – 750 keV (mice) and a 6-ns timing window. Before each PET scan, a transmission scan using a ^57Co point source was recorded over 10 min. The PET data from the 60-min dynamic scans were sorted into three-dimensional sinograms according to the following frame sequence: 6 × 20 s, 5 × 60 s, 4 × 120 s, 3 × 300 s and 3 × 600 s. For the 90-min scans (in the xenografted mice) the following frame sequence was used: 8 × 5 s, 2 × 10 s, 2 × 30 s, 3 × 60 s, 2 × 150 s, 2 × 300 s, 4 × 600 s and 2 × 900 s. PET images were reconstructed by Fourier rebinning followed by filtered back projection with a ramp filter. The resulting voxel size was 0.6 × 0.6 × 0.8 mm for rats or 0.4 × 0.4 × 0.8 mm for mice. The standard data correction protocol (normalization, attenuation and decay correction) was applied to the data. A calibration factor for converting units of microPET images into absolute radioactivity concentration units was first generated by imaging a phantom filled with a known concentration of [^18F]FDG.
Rat brains were manually outlined on multiple planes of the PET summation images using the image analysis software PMOD 3.1 (Pmod Ltd, Zürich, Switzerland) or Amide. Volumes of interest in the brain or solid tissue mass (xenografts) were transferred to the PET images of the individual time frames and time–activity curves (TACs) expressed in units of kilobecquerels per millilitre were calculated. To facilitate comparison of TACs of different animals, radioactivity concentrations were normalized to dose and weight and expressed as standardized uptake value (SUV, %ID/cm^3 or %ID/g). […]

Another series relates to P-gp. As to the kind of experiment: Small-animal PET in rats: efflux (P-gp) inhibition. The class given is in vivo.
Series [2] can be described thus: In vitro plasma stability, rat plasma. Type of series: in vitro ADME. As for the experimental part: Experiments were conducted following a standard protocol. Briefly, [^18F]FE@SUPPY was added to lithium-heparinized human or rat plasma and after predetermined times (0, 60 and 120 min), the incubation mixture was eluted through a preconditioned SPE cartridge. The washed and newly eluted eluate solutions were injected into the radio-HPLC system (HPLC system as described in the section Ex vivo stability). The stationary phase was an analytical HPLC column LiChrospher LICHROCART® RP-18e (5 μm), 125 × 4 mm precolumn, and the mobile phase consisted of sodium citrate tribasic dehydrate (buffered at 0.034 M, pH 2.5)/acetonitrile 32:68 at a flow rate of 2 mL/min. Samples were incubated with a Thermomixer Compact from Eppendorf (Vienna, Austria) and centrifuged with a Universal 30 RF centrifuge from Hettich (Tuttlingen, Germany).

Details of series [3]: method as in PMID 18158944. The settings on record: cited from earlier work.
Series [4] has as its system A3R. More on the design: method as in PMID 20447552. To be noted: cited from earlier work.
Details of series [5]: method as in PMID 20447552. The settings on record: rats, 30 min after injection; cited from earlier work.

Excerpt for P-gp: A microPET Focus220 scanner (Siemens, Medical Solutions) was used for the experiments. […] The resolution of the reconstructed images (filtered back projection) was 1.3 mm (full-width at half-maximum) in the central field of view and remained under 2 mm within the central 5 cm diameter field of view [15]. For PET imaging two groups of animals (rats and xenografted mice) were investigated. Rats were divided into four groups.
Anaesthetized animals were positioned in the imaging chamber of the microPET scanner, which was kept at 38 °C throughout the experiment. […]
For all PET scans (rats and xenografted mice), list mode data were acquired with an energy window of 350 – 750 keV (rats) or 250 – 750 keV (mice) and a 6-ns timing window. Before each PET scan, a transmission scan using a ^57Co point source was recorded over 10 min. […] A calibration factor for converting units of microPET images into absolute radioactivity concentration units was first generated by imaging a phantom filled with a known concentration of [^18F]FDG.
Rat brains were manually outlined on multiple planes of the PET summation images using the image analysis software PMOD 3.1 (Pmod Ltd, Zürich, Switzerland) or Amide [18]. […] To facilitate comparison of TACs of different animals, radioactivity concentrations were normalized to dose and weight and expressed as standardized uptake value (SUV, %ID/cm^3 or %ID/g). […]

With `CCSC(=O)c1c(CC)nc(-c2ccccc2)c(C(=O)OCC[18F])c1CC` [[^18F]FE@SUPPY, 5-(2-[^18F]fluoroethyl)-2,4-diethyl-3-(ethylsulfanylcarbonyl)-6-phenylpyridine-5-carboxylate], at A3R [1], the “tracer uptake in fat-rich regions (harderian and lacrimal glands)” value is “high uptake”; the “tracer uptake in the brain” value is “low uptake”. The same compound displayed a peak brain activity in the series with P-gp (TQD-treated group (15 mg/kg, 60 min before tracer)) of 1.53 ± 0.01 SUV. Besides, the peak brain activity in the series with P-gp (untreated group) amounted to 1.56 ± 0.22 SUV. Moreover, the “radioactivity from metabolites in rat plasma” value in series [2] (60 min) is listed as 18.7 ± 3%. The “radioactivity from metabolites in rat plasma” value in series [2] (120 min) stood at 35.0 ± 4%. For the same compound, the “radioactive metabolites in rat plasma over the observation period” value in series [2] (observation period of 120 min) is given as 19 – 35%. For the same compound, in series [3], the Biodistribution in rats result is “Followed mainly A3 pattern (except testes) [3]” and the “Bone uptake in rats” value is “None [3]”. Also, in series [3] (rats), the “Brain to blood uptake ratio in biodistribution experiments” value was “up to 5.4” and the “brain-to-blood ratios over time” value is listed as “increase over time”. The “Autoradiography in humans and rats” value with A3R [4] was “High selectivity; FE@SUPPLY comparable with MRS1523 [12]”. In addition, in series [5], the metabolites in brain result is “no metabolites” and the “parent compound left in plasma” value is recorded as 30%.
